Values quoted from earlier work in US8778397B2, “Stabilized tolterodine tartrate formulations” (Mylan Inc., priority 2007, dated 2014).

solubility in water: 12 g/1000 mL
SMILES: Cc1ccc(O)c([C@H](CCN(C(C)C)C(C)C)c2ccccc2)c1 [Tolterodine]
